These results are taken from the NIST ThermoML archive (doi:10.1016/j.fluid.2015.12.026).

Numbers after ± are expanded uncertainties.

This data set is described as follows: wn = mass fraction of the nth substance listed. The conditions noted are these: 101.3 kPa, Liquid, Vibrating tube method.

As usually defined, the mass density is the mass of a sample divided by its volume. Turning to `O=C(O)CCCCC(=O)O` [1,6-hexanedioic acid] + OCCOCCO, the mass density (298.15 K, w1 = 0.0878) is on record as 1171.8 ± 0.5 kg/m3; the mass density (313.15 K, w1 = 0.1087) was 1175.7 ± 0.6 kg/m3; the mass density (333.15 K, w1 = 0.1472) was found to be 1188.2 ± 0.7 kg/m3.
On to `NC(N)=O` [urea] + OCCOCCO, for which the mass density runs as follows: (298.15 K, w1 = 0.2315) 1160.9 ± 1.1 kg/m3; (313.15 K, w1 = 0.2807) 1174.2 ± 1.3 kg/m3; (333.15 K, w1 = 0.3526) 1184.5 ± 1.7 kg/m3.
